Results on two compounds are retold here after patent publication US12133486B2, “Methods of propagation of arbuscular mycorrhizal fungi (AMF) and uses thereof” (Terra Microbes, LLC, priority 2021, dated 2024).

Structures are written as SMILES.

This assay concerns AM fungi infection of yellow sweet clover (Melilotus officinalis) roots. Nature of the assay: Pot study: AM infection level of yellow sweet clover roots. Format: in vivo. The settings on record: YBSC plants; 80 ppm treatment P; 66 days; infected 1.1 mm root segments per 80 examined. From the text:
This Example is an un-replicated study to examine whether PO3^−3 (phosphite) impacts spore production and infection rate of AM fungi. The fungi were a mixed inoculum source from the University of West Virginia (UWV). UWV holds and maintains the International Culture Collection of (Vesicular) Arbuscular Mycorrhizal Fungi (INVAM). The plant used was yellow blossom sweet clover (Melilotus officinalis). All pots were inoculated, but only half were planted. Each Experimental unit was a 20 cm pot. Substrate for the units were a soil, sand, and inoculum mixture.
The present example was designed as a pot experiment where each pot was a treatment, the treatments being untreated controls, units treated with phosphate, and units treated with phosphite. All pots were a mixture of steamed ML soil, sand, and inoculum. Control units (pots) received no other treatment. Phosphate pots were treated with K2HPO4. Phosphite pots were treated with an equivalent molarity (concentration) of P as K2HPO3.
Half of the pots (a control, phosphate, and phosphite treatments) were planted with yellow sweet clover seed. The other half of the pots (also a control, phosphate, and phosphite treatment) were not planted with any plants.
Phosphate and phosphite were added to the soil materials such that the phosphorus in each would constitute 80 mg per kg of soil (Table 6). […]

In the case of `OP(O)O` [PO3, dipotassium phosphite], the “AM Infection level, %” value was 35%.

Regarding `O=P([O-])([O-])O.[K+].[K+]` [PO4, dipotassium phosphate], the “AM Infection level, %” value stood at 47.5%.
